Assay results as given in PubChem BioAssay (NCI).
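These data come from cells grown in 96-well plates and exposed to compound for 48 hours at five concentrations. Here, GI50 denotes the concentration required for 50% inhibition of growth. The concentration for full growth arrest is given as TGI.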

Assays:
Assay in all cases: growth of human tumour cells (NCI), 48 h
[1] = test system: 786-0 renal
[2] = test system: A498 renal
[3] = test system: A549 NSCLC
[4] = test system: ACHN renal
[5] = test system: BT-549 breast
[6] = test system: CAKI-1 renal
[7] = test system: CCRF-CEM leukemia
[8] = test system: COLO 205 colon
[9] = test system: DU-145 prostate
[10] = test system: EKVX NSCLC
[11] = test system: HCC-2998 colon
[12] = test system: HCT-116 colon
[13] = test system: HCT-15 colon
[14] = test system: HL-60(TB) leukemia
[15] = test system: HOP-62 NSCLC
[16] = test system: HOP-92 NSCLC
[17] = test system: HS 578T breast
[18] = test system: HT29 colon
[19] = test system: IGROV1 ovarian
[20] = test system: K-562 leukemia
[21] = test system: KM12 colon
[22] = test system: LOX IMVI melanoma
[23] = test system: M14 melanoma
[24] = test system: MALME-3M melanoma
[25] = test system: MCF7 breast
[26] = test system: MDA-MB-231 breast
[27] = test system: MDA-MB-435
[28] = test system: NCI-H226 lung
[29] = test system: NCI-H23 lung
[30] = test system: NCI-H460 lung
[31] = test system: NCI-H522 lung
[32] = test system: NCI/ADR-RES ovarian
[33] = test system: OVCAR-3 ovarian
[34] = test system: OVCAR-4 ovarian
[35] = test system: OVCAR-5 ovarian
[36] = test system: OVCAR-8 ovarian
[37] = test system: PC-3 prostate
[38] = test system: RPMI-8226 leukemia
[39] = test system: RXF 393 renal
[40] = test system: SF-268 CNS
[41] = test system: SF-295 CNS
[42] = test system: SF-539 CNS
[43] = test system: SK-MEL-2 melanoma
[44] = test system: SK-MEL-28 melanoma
[45] = test system: SK-MEL-5 melanoma
[46] = test system: SK-OV-3 ovarian
[47] = test system: SN12C renal
[48] = test system: SNB-19 CNS
[49] = test system: SNB-75 CNS
[50] = test system: SW-620 colon
[51] = test system: T-47D breast
[52] = test system: TK-10 renal
[53] = test system: U251 CNS
[54] = test system: UACC-257 melanoma
[55] = test system: UACC-62 melanoma
[56] = test system: UO-31 renal

CC1SC2(CCC(c3ccccc3)CC2)N(NC(=O)c2[nH]c3ccc(F)cc3c2-c2ccccc2)C1=O (configuration not stated)
GI50 [1]: 2.92 µM
TGI [1]: 12.2 µM
GI50 [2]: 13 µM
TGI [2]: 28.2 µM
GI50 [3]: 7.72 µM
TGI [3]: 46.8 µM
GI50 [4]: 3.4 µM
TGI [4]: 14.9 µM
GI50 [5]: 5.45 µM
TGI [5]: 34.6 µM
GI50 [6]: 4.38 µM
TGI [6]: 24.5 µM
GI50 [7]: 1.59 µM
TGI [7]: 13.4 µM
GI50 [8]: 2.96 µM
TGI [8]: 10.5 µM
GI50 [9]: 4.33 µM
TGI [9]: 17.8 µM
GI50 [10]: 12.4 µM
TGI [10]: 54.2 µM
GI50 [11]: 2.51 µM
TGI [11]: 7.05 µM
GI50 [12]: 1.94 µM
TGI [12]: 4.56 µM
GI50 [13]: 2.43 µM
TGI [13]: 11.1 µM
GI50 [14]: 1.31 µM
TGI [14]: 4.53 µM
GI50 [15]: 4.59 µM
TGI [15]: 23.5 µM
GI50 [16]: 1.33 µM
TGI [16]: 3.65 µM
GI50 [17]: 12 µM
TGI [17]: 68.3 µM
GI50 [18]: 1.67 µM
TGI [18]: 4.18 µM
GI50 [19]: 3.89 µM
TGI [19]: 20 µM
GI50 [20]: 2.11 µM
TGI [20]: 6.1 µM
GI50 [21]: 2.32 µM
TGI [21]: 6.91 µM
GI50 [22]: 2.9 µM
TGI [22]: 14 µM
GI50 [23]: 5.67 µM
TGI [23]: 21.9 µM
GI50 [24]: 16 µM
TGI [24]: 49.8 µM
GI50 [25]: 4.78 µM
TGI [25]: 24.1 µM
GI50 [26]: 14.8 µM
TGI [26]: 44 µM
GI50 [27]: 6.11 µM
TGI [27]: 39.3 µM
GI50 [28]: 11 µM
TGI [28]: 29.8 µM
GI50 [29]: 4.4 µM
TGI [29]: 19 µM
GI50 [30]: 4.28 µM
TGI [30]: 40.2 µM
GI50 [31]: 7.21 µM
TGI [31]: 24.6 µM
GI50 [32]: 3.58 µM
TGI [32]: 23.4 µM
GI50 [33]: 4.33 µM
TGI [33]: 53.8 µM
GI50 [34]: 3.87 µM
TGI [34]: 18.3 µM
GI50 [35]: 18.5 µM
TGI [35]: 43.8 µM
GI50 [36]: 2.87 µM
TGI [36]: 19 µM
GI50 [37]: 1.56 µM
TGI [37]: 5.34 µM
GI50 [38]: 0.804 µM
TGI [38]: 2.91 µM
GI50 [39]: 2.22 µM
TGI [39]: 7.49 µM
GI50 [40]: 21.2 µM
TGI [40]: > 100 µM
GI50 [41]: 12.1 µM
TGI [41]: 69 µM
GI50 [42]: 20 µM
TGI [42]: 49.3 µM
GI50 [43]: 14 µM
TGI [43]: 38.6 µM
GI50 [44]: 5.34 µM
TGI [44]: 18.1 µM
GI50 [45]: 3.85 µM
TGI [45]: 21.6 µM
GI50 [46]: 54.3 µM
TGI [46]: > 100 µM
GI50 [47]: 3.56 µM
TGI [47]: 12.7 µM
GI50 [48]: 26.6 µM
TGI [48]: > 100 µM
GI50 [49]: 19.4 µM
TGI [49]: 42.2 µM
GI50 [50]: 6.57 µM
TGI [50]: > 100 µM
GI50 [51]: 14.2 µM
TGI [51]: > 100 µM
GI50 [52]: 7.57 µM
TGI [52]: > 100 µM
GI50 [53]: 4.09 µM
TGI [53]: 24 µM
GI50 [54]: 19 µM
TGI [54]: 53.9 µM
GI50 [55]: 6.21 µM
TGI [55]: 27.4 µM
GI50 [56]: 6.48 µM
TGI [56]: 33.1 µM
